Tests used:
[1] = target: T1, Tpa1p (Saccharomyces cerevisiae, UniProt P40032); assay: X-ray crystal structure, […] Å; type: binding
T1 construct: gene TPA1; full-length (644 aa), N-terminal hexa-histidine tag

[2] = target: T2, OGFOD1 (Homo sapiens, UniProt Q8N543); assay: hydroxylation of uS12 […]-70 peptide by MALDI-TOF MS; type: biochemical; set-up: 542 aa, N-terminal hexa-histidine tag
T2 sequence (Q8N543 1-542): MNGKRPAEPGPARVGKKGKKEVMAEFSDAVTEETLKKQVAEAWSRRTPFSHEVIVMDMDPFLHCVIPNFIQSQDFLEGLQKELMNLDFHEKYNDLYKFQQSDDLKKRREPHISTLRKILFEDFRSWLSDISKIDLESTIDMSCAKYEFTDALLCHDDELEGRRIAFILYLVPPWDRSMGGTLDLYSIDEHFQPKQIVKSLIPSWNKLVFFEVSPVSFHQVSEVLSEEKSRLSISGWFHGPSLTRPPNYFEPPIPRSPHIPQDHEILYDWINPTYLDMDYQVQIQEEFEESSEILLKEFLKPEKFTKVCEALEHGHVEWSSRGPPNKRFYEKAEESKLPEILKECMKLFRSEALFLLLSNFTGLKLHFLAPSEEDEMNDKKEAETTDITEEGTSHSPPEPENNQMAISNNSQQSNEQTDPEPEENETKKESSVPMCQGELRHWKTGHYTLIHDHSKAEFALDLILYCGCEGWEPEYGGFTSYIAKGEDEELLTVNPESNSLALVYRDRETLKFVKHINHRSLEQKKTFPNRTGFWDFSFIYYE

[3] = target: T2, OGFOD1; assay: X-ray crystal structure, […] Å (also enzyme inhibition, Figure 6A); type: binding; set-up: full-length (542 aa), N-terminal hexa-histidine tag
[4] = target: T1, Tpa1p; assay: X-ray crystal structure, […] Å; type: binding; remark: listed apart in the source

T1 sequence (P40032 whole entry): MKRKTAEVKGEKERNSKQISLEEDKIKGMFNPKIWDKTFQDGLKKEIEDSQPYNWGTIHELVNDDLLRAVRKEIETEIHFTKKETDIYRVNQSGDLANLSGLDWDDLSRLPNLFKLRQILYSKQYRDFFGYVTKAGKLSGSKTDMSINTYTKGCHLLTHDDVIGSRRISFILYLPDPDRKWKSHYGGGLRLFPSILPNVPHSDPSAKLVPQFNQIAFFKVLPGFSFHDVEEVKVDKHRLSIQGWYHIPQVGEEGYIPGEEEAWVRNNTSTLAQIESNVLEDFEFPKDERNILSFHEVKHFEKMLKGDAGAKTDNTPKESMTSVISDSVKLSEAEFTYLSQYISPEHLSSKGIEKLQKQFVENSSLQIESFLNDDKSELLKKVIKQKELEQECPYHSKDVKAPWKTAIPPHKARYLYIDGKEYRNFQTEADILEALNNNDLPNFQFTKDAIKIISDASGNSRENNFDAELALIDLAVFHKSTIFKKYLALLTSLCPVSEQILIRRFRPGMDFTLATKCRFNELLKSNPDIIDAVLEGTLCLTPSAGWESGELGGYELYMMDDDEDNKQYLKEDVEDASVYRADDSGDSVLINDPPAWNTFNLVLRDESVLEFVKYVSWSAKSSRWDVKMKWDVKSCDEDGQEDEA

Row | Compound | X-ray crystal structure, 1.9 Å [1] | IC50 [2] [nM] | X-ray crystal structure, 2.1 Å (also enzyme inhibition, Figure 6A) [3] | X-ray crystal structure, 2.8 Å [4]
1 | O=C(O)CNC(=O)c1nc(Cl)c2ccccc2c1O [IOX3, 1-chloro-4-hydroxyisoquinoline-3-carbonylglycine] | In Tpa1p, IOX3 binds similarly to NOG with its glycyl side chain carboxylate positioned to form a salt bridge | 520 ± 80 |  | 
2 | O=C(O)CNC(=O)C(=O)O [N-oxalylglycine] |  |  | With OGFOD1 the C-5 carboxylate of NOG is positioned to form hydrogen bonds to the side chains of Tyr169 and Arg230 | OGFOD1 and Tpa1p bind NOG similarly.

Source: PMC4396695, “Structure of the Ribosomal Oxygenase OGFOD1 Provides Insights into the Regio- and Stereoselectivity of Prolyl Hydroxylases” (Structure(London, England:1993), 2015)
